Tested on: NHDF cells (normal human dermal fibroblast cell)
Experiment: Experiment 1: collagen production in NHDF cells (Sircol kit), α,α-trehalose with AA-2G
Format: cell-based
Conditions: relative to AA-2G = 100
Experimental: Using “fibrocell NHDF”, a normal human dermal fibroblast cell, commercialized by Kurashiki Spinning Co., Ltd., Okayama, Japan (abbreviated as “NHDF cells”, hereinafter), experiment for studying the influence of α,α-trehalose on the collagen production by L-ascorbic acids was conducted based on the method described in Bioscience, Biotechnology, and Biochemistry, Vol. 68, No. 4, pp. 767-773, 2004. The method is outlined below: Test solutions were prepared by dissolving L-ascorbic acid 2-glucoside, a reagent grade specimen commercialized by Hayashibara Biochemical Laboratories Inc., Okayama, Japan (may be abbreviated as “AA-2G”, hereinafter), and α,α-trehalose, a reagent grade specimen commercialized by Hayashibara Biochemical Laboratories Inc., Okayama, Japan, in Dulbecco […] essential medium containing 10% (v/v) fetal calf serum and an antibiotic (abbreviated as “D-MEM”, hereinafter) to give a final concentration of 50 μM/ml of AA-2G and a final concentration of 7.5, 15 or 30 mg/ml of α,α-trehalose. NHDF cells, which had been successively cultured in D-MEM medium, were collected, re-suspended in a fresh preparation of D-MEM medium, inoculated to 96-well microplates at a cell concentration of 2.5×10^4 cells/200 μl/well, and cultured for 24 hours. Thereafter, the supernatants of the cultures were removed by sucking, and further cultured for five days after addition of any of the test solutions in a volume of 200 μl/well. As controls, the cells, which had been cultured for 24 hours, were further cultured for five days after addition of 200 μl/well of D-MEM medium, D-MEM medium supplemented with α,α-trehalose at a concentration of 30 mg/ml, or D-MEM medium supplemented with AA-2G at a concentration of 50 μM/ml. After completion of culturing, the supernatants of the cultures were removed by sucking, admixed with 50 μl/well of 1 M acetic acid solution containing 1 mg/ml of pepsin, and shaken for four hours to solubilize collagen adhered to the cell surfaces, followed by quantifying the content of collagen accumulated in the cells using “Sircol Collagen Quantification Kit”, commercialized by Biocolor Ltd. These control and test solutions were respectively experimented with three wells, followed by calculating a mean value for collagen-production levels in the wells. All the cultures of the NHDF cells were conducted in a 5% (v/v) CO2 incubator. The results are in Table 1 where the values are expressed with relative values in terms of the collagen-production level of NHDF cells, which had been cultured in D-MEM medium containing AA-2G, being regarded as 100.

OC[C@H]1O[C@H](O[C@H]2O[C@H](CO)[C@@H](O)[C@H](O)[C@H]2O)[C@H](O)[C@@H](O)[C@@H]1O [α,α-trehalose]
Collagen-production level (α,α-trehalose 7.5 mg/ml + 50 μM AA-2G): 150
Collagen-production level (α,α-trehalose 15.0 mg/ml + 50 μM AA-2G): 217
Collagen-production level (α,α-trehalose 30.0 mg/ml + 50 μM AA-2G): 264
Collagen-production level (α,α-trehalose 30.0 mg/ml in D-MEM, no AA-2G): 41
